# Target: T1, RfaE (Escherichia coli, UniProt P76658)
# T1 construct: made in house; host or cells: E. coli
# Assay: Inhibition of the enzymatic activity of RfaE (HTS luminescent or fluorescent biochemical assay)
# Set-up: species or system E. coli
# Details: dose-response, FIG. 1
# Protocol: According to another object, the invention also relates to a method for assessing RfaE enzymatic activity. • Said method comprises • pre-incubating at room temperature • DMSO or inhibitor to be tested dissolved in DMSO and RfaE in an assay buffer • and either • adding a reaction mixture composed of RfaE, β-heptose-7-phosphate, ATP, in the assay buffer and incubating at room temperature • adding a revelation mixture composed of luciferase, D-luciferin and N-acetylcysteamine • measuring the luminescence intensity and converting into inhibition % to further calculate the IC50 values; • or • adding a reaction mixture composed of RfaE, β-heptose-7-phosphate ATP, pyruvate kinase, phosphoenolpyruvate, lactate dehydrogenase and NADH in said assay buffer, • measuring the fluorescence intensity of NADH kinetically and deriving inhibition % from fitted initial velocities, to further calculate the IC50 values.
# Inhibition of the Enzymatic Activity of RfaE
# RfaE is a kinase belonging to the ribokinase family. It catalyses an essential step of the biosynthesis of L-ADP-Heptose, namely the phosphorylation of β-heptose-7-phosphate (H7P) into β-heptose-1,7-bisphosphate (H17P). RfaE assays as described in the literature are essentially based on direct HLPC detection of the substrates H7P and ATP, and of the products H17P and ADP, raising obvious limitations for HTS applications. The assays described below are based either on luminescent ATP detection, or on fluorescent ADP detection. They are easily amenable to miniaturized formats and fast readouts as required by HTS.
# The assay buffer “AB” contains 50 mM Hepes pH7.5, 1 mM MnCl2, 25 mM KCl, 0.012% Triton-X100 and 1 mM DTT. The following components are added in a white polystyrene Costar plate up to a final volume of 31 μL: 3 μL DMSO, or inhibitor dissolved in DMSO and 28 μL RfaE in AB. After 30 min of pre-incubation at room temperature, 29 μL of Substrates mix in AB are added in each well to a final volume of 60 μL. This reaction mixture is then composed of 3 nM RfaE (produced in house from E. coli), 0.2 μM β-heptose-7-phosphate (in house synthesis) and 0.2 μM ATP (Sigma) in assay buffer. After 40 min of incubation at room temperature, 200 μL of the revelation mix are added to a final volume of 260 μL, including the following constituents at the respective final concentrations: 2 nM luciferase (Sigma), 30 μM D-luciferin (Sigma), 100 μM N-acetylcysteamine (Aldrich). Luminescence intensity is immediately measured on an Analyst-HT (Molecular Devices) and converted into inhibition percentages. For IC50 determinations, the inhibitor is tested at 6 to 10 different concentrations, and the related inhibitions are fitted to a classical langmuir equilibrium model using XLFIT (IDBS).
# The assay buffer “AB” contains 50 mM Hepes pH7.5, 1 mM MnCl2, 25 mM KCl, 0.012% Triton-X100 and 1 mM DTT. The following components are added in a black polystyrene Costar plate up to a final volume of 50 μL: 5 μL DMSO, or inhibitor dissolved in DMSO and 45 μL RfaE in AB. After 30 min of pre-incubation at room temperature, 50 μL of Substrates-revelation mix in AB are added in each well to a final volume of 100 μL. This reaction mixture is then composed of 66 μM RfaE (produced in house from E. coli), 1 μM β-heptose-7-phosphate (in house synthesis), 50 μM ATP (Sigma), 5 u/mL Pyruvate Kinase (Sigma), 50 μM phosphoenolpyruvate (Sigma), 5 u/mL Lactate dehydrogenase (Sigma) and 2.5 μM NADH (Sigma) in assay buffer. Fluorescence intensity of NADH (λex=360 nm, λem=520 nm) is immediately measured kinetically by a Fluostar Optima (BMG). Inhibition percentages are derived from fitted initial velocities. For IC50 determinations, the inhibitor is tested at 6 to 10 different concentrations, and the related inhibitions are fitted to a classical langmuir equilibrium model using XLFIT (IDBS).
# T1 sequence (P76658 whole entry): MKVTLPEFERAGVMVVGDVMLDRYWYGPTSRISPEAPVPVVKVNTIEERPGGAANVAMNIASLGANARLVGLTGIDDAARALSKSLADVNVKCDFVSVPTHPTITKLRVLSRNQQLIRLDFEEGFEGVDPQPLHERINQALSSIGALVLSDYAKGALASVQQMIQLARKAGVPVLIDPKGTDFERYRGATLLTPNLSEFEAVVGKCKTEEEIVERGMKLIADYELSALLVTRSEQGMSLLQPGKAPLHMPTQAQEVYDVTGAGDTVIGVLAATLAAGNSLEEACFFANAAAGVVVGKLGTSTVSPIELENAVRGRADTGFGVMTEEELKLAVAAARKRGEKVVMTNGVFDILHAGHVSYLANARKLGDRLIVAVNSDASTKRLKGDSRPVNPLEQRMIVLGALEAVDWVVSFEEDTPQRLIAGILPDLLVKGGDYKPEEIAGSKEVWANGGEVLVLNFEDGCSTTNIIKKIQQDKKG
row,Compound,Inhibition of RfaE biochemical activity (FIG. 1)
1,"Cc1oc(-c2cccc([N+](=O)[O-])c2)nc1C(=O)N(CC(=O)O)Cc1ccccn1 [Example XXIII, [{[5-methyl-2-(3-nitrophenyl)-1,3-oxazol-4-yl]carbonyl}(pyridin-2-ylmethyl)amino]acetic Acid]",Dose Dependent Inhibition

# Same assay, conditions: inhibitor tested at 6 to 10 concentrations; 30 min pre-incubation at room temperature
row,Compound,IC50 [µM]
1,"Cc1nc(-c2cccc([N+](=O)[O-])c2)sc1C(=O)N(CC(=O)O)Cc1nc2ccccc2s1 [XXXIX, ((1,3-benzothiazol-2-ylmethyl){[4-methyl-2-(3-nitrophenyl)-1,3-thiazol-5-yl]carbonyl}amino)acetic Acid]",0.5
2,"Cc1nc(-c2ccccc2)oc1C(=O)N(CC(=O)O)Cc1ccccn1 [VI, [[(4-methyl-2-phenyl-1,3-oxazol-5-yl)carbonyl](pyridin-2-ylmethyl)amino]acetic Acid]",71
3,"Cc1oc(-c2cccc([N+](=O)[O-])c2)nc1C(=O)N(CC(=O)O)Cc1ccccn1 [Example XXIII, [{[5-methyl-2-(3-nitrophenyl)-1,3-oxazol-4-yl]carbonyl}(pyridin-2-ylmethyl)amino]acetic Acid]",3.8
4,"CC(=O)c1cccc(-c2nc(C)c(C(=O)N(CC(=O)O)Cc3ccccn3)s2)c1 [XXXVI, [{[2-(3-acetylphenyl)-4-methyl-1,3-thiazol-5-yl]carbonyl}(pyridin-2-ylmethyl)amino]acetic Acid]",216
5,"Cn1nc(-c2ccccc2)cc1C(=O)N(CC(=O)O)Cc1ccccn1 [VIII, [[(1-methyl-3-phenyl-1H-pyrazol-5-yl)carbonyl](pyridin-2-ylmethyl)amino]acetic Acid]",57
6,"Cc1oc(-c2cccc(Br)c2)nc1C(=O)N(CC(=O)O)Cc1ccccn1 [XVIII, [{[2-(3-bromophenyl)-5-methyl-1,3-oxazol-4-yl]carbonyl}(pyridin-2-ylmethyl)amino]acetic Acid]",10
7,"COc1cccc(-c2nc(C(=O)N(CC(=O)O)Cc3ccc4ccccc4n3)c(C)o2)c1 [XXXIV, [{[2-(3-methoxyphenyl)-5-methyl-1,3-oxazol-4-yl]carbonyl}(quinolin-2-ylmethyl)amino]acetic Acid]",12
8,"Cc1nc(-c2ccc3[nH]ccc3c2)sc1C(=O)N(CC(=O)O)Cc1nc2ccccc2s1 [XXXVIII, ((1,3-benzothiazol-2-ylmethyl){[2-(1H-indol-5-yl)-4-methyl-1,3-thiazol-5-yl]carbonyl}amino)acetic Acid]",0.33
9,"COc1cccc(-c2nc(C)c(C(=O)N(CC(=O)O)Cc3nc4ccccc4s3)o2)c1 [XXIX, ((1,3-benzothiazol-2-ylmethyl){[2-(3-methoxyphenyl)-4-methyl-1,3-oxazol-5-yl]carbonyl}amino)acetic Acid]",0.24
10,"Cc1oc(-c2cccc(NC(=O)C3CC3)c2)nc1C(=O)N(CC(=O)O)Cc1ccccn1 [XXVIII, {[(2-{3-[(cyclopropylcarbonyl)amino]phenyl}-5-methyl-1,3-oxazol-4-yl)carbonyl](pyridin-2-ylmethyl)amino}acetic Acid]",14
11,"Cc1nn(-c2ccccc2)nc1C(=O)N(CC(=O)O)Cc1ccccn1 [XI, [[(5-methyl-2-phenyl-2H-1,2,3-triazol-4-yl)carbonyl](pyridin-2-ylmethyl)amino]acetic Acid]",48
12,"[{[2-(4-bromophenyl)-5-methyl-1,3-oxazol-4-yl]carbonyl}(pyridin-2-ylmethyl)amino]acetic Acid [XVII]",27

# From patent US20100022541A1, “Chemical inhibitors of bacterial heptose synthesis, methods for their preparation and biological applications of said inhibitors” (priority 2006, published 2010)
